Measured values as given in paper PMC5642477, “Phosphodiesterase 10A is overexpressed in lung tumor cells and inhibitors selectively suppress growth by blocking β-catenin and MAPK signaling” (Oncotarget, 2017).
Where two headings read alike, the source gives them in different places.

Key:
[1] = molecular target: PDE10A (Homo sapiens, UniProt Q9Y233); test: IMAP fluorescence polarization PDE assay, recombinant PDE isozymes; format: biochemical
Description: (§1) The enzymatic activity of recombinant PDE or PDE activities in cell lysates were measured using the IMAP fluorescence polarization (FP) PDE assay (Molecular Devices) as previously described. PDE10 inhibitors and DMSO as the vehicle were added to assay buffer 10 minutes before the incubation with the enzyme reaction. Fluorescence polarization values were measured using Synergy H4 Hybrid Reader (BioTek).

[2] = molecular target: PDE11A (Homo sapiens, UniProt Q9HCR9); test: as above; format: biochemical
Description: as §1

[3] = molecular target: PDE1A (Homo sapiens, UniProt P54750); test: as above; format: biochemical
Description: as §1

[4] = molecular target: PDE2A (Homo sapiens, UniProt O00408); test: as above; format: biochemical
Description: as §1

[5] = molecular target: PDE3A (Homo sapiens, UniProt Q14432); test: as above; format: biochemical
Description: as §1

[6] = molecular target: PDE4B (Homo sapiens, UniProt Q07343); test: as above; format: biochemical; conditions: substrate cAMP; read-out: IC50 of PQ10 cAMP
Description: as §1

[7] = molecular target: PDE5A (Homo sapiens, UniProt O76074); test: as above; format: biochemical; conditions: substrate cGMP; read-out: IC50 of PQ10 cGMP
Description: as §1

[8] = tested on: H1299 cells; test: Growth assay (Cell Titer Glo); format: cell-based, human; conditions: Homo sapiens, NCI-H1299; H1299, 72 hours, 5% serum; read-out: Growth inhibition IC50
Description: (§2) Cells were plated in half area 96-well microtiter plates (Corning) at a density of 3, 000 cells per well. For drug treatment, cells were treated with compound or DMSO as vehicle (final concentration at 0.2%). For siRNA assays, cells were transfected with siRNAs under the same condition as described above. The effect of treatment on cell growth was measured using the Cell Titer Glo (CTG) assay (Promega) as specified by the measurement of viable cells based on ATP content after 72 hours standard culture. All growth assay involving NSCLCs and NHAECs were performed in the presence of 5% serum.
(§3) Drug effects on cell growth and IC50 values were determined as described previously. All experiments were repeated a minimum of three times to determine the reproducibility of the results. All error bars represent standard error of the mean (SEM). Statistical analysis was performed using Student’s t test or other as indicated. A P value of <0.05 was considered statistically significant.

[9] = tested on: HOP62 cells; test: Growth assay (Cell Titer Glo); format: cell-based, human
Description: as §2, §3

[10] = tested on: human lung tumor cells; test: Growth assay (Cell Titer Glo), lung tumor cell panel; format: cell-based
Description: as §2, §3

[11] = tested on: HOP62 PDE10 knockdown cells (shPDE10); test: Colony formation assay; format: cell-based, human
Description: (§4) The transient knockdown of PDE10 in NSCLC cells by PDE10-specific siRNA and scramble siRNA control was performed using RNAiMAX reagent (Invitrogen) as previously described. Effects of siRNA on NSCLC cell growth and PDE10 expression levels were measured after 72 hours of treatment. For a stable knockdown of PDE10, GIPZ lentiviral short hairpin RNA (shRNA) vectors targeting human PDE10, nonsilencing GPIZ lentiviral control vector, and transduction kit were purchased from Open Biosystems. Lentiviral particles of shRNA were produced in HEK293T cells (ATCC) according to the manufacturer’s instructions. HOP62 NSCLC cells were transfected by the lentivirus particles followed by puromycin (5 μg/mL) selection. Stable expression cell lines with shRNA of PDE10 (shPDE10) or lentiviral vector control (shCTL) were obtained by limited dilution for single cell clone and confirmed by Western blotting.
(§5) For colony formation assays, 200 viable cells were plated in 6-well tissue culture plates and were cultured in RPMI medium supplemented with 5% serum. DMSO (0.2%) as the vehicle and different concentrations of PQ10 were added to the cell culture medium for 14 days of treatment. Colonies were counted after staining with crystal violet as previously described.

[12] = tested on: HOP62 cells (shCTL vector control); test: Colony formation assay; format: cell-based, human
Description: as §4, §5

[13] = tested on: intracellular cGMP levels in H1299 cells; test: cGMP biosensor assay (luciferase); format: cell-based, human; conditions: for EC50: Homo sapiens, NCI-H1299, H1299 biosensor cells, read-out: EC50 to induce cGMP elevation
Description: (§6) Stable cell lines with an expression of luciferase-based cGMP biosensor were established from H1299 NSCLC cells and HEK293 cells using a genetically encoded GAF-Luc construct (Promega), containing a cGMP-specific binding domain from human PDE5A GAF-A domain fused to modified firefly luciferase (35). Cells were pre-incubated at room temperature in CO2 independent media supplemented with 10% FBS and 5 mmol/L luciferin. For the measurement of intracellular cGMP levels, sodium nitroprusside (SNP) or C-type natriuretic peptide (CNP) in combination with PDE inhibitors were added to initiate the experiment and the increased luminescence values in live cells were detected constantly over a period time of 2 hours.

[14] = tested on: intracellular cGMP levels in HEK293 cells; test: cGMP biosensor assay (luciferase); format: cell-based, human
Description: as §6

[15] = tested on: PKG activation in H1299 cells; test: Western blotting, PKG activation (pSer239-VASP); format: cell-based, human
Description: (§7) Whole cell extraction was performed according to a previously described method using cell lysing buffer (Cell Signaling) supplemented with 10 mmol/L NaF for protein phosphorylation studies. Cell lysates were separated by 4-12% gradient, 7% or 10% pre-casting PAGE (Novex/Invitrogen) followed by electrophoretic transfer to a nitrocellulose membrane. Western blotting procedures were performed using Chemiluminescence Reagent (Pierce) and visualized using Chemi Doc Imaging System (BioRad).

[16] = tested on: cleaved PARP and caspase 3 in H1299 cells; test: Western blotting, cleaved PARP and caspase 3 (apoptosis); format: cell-based, human; conditions: H1299 cells
Description: as §7

[17] = tested on: MAPK signaling in H1299 cells; test: Western blotting, RAF/MAPK signaling; format: cell-based, human
Description: as §7

[18] = substrate cAMP, read-out: IC50 of PQ10 cAMP
[19] = substrate cGMP, read-out: IC50 of PQ10 cGMP

Chain of PDE11A (Q9HCR9 whole entry): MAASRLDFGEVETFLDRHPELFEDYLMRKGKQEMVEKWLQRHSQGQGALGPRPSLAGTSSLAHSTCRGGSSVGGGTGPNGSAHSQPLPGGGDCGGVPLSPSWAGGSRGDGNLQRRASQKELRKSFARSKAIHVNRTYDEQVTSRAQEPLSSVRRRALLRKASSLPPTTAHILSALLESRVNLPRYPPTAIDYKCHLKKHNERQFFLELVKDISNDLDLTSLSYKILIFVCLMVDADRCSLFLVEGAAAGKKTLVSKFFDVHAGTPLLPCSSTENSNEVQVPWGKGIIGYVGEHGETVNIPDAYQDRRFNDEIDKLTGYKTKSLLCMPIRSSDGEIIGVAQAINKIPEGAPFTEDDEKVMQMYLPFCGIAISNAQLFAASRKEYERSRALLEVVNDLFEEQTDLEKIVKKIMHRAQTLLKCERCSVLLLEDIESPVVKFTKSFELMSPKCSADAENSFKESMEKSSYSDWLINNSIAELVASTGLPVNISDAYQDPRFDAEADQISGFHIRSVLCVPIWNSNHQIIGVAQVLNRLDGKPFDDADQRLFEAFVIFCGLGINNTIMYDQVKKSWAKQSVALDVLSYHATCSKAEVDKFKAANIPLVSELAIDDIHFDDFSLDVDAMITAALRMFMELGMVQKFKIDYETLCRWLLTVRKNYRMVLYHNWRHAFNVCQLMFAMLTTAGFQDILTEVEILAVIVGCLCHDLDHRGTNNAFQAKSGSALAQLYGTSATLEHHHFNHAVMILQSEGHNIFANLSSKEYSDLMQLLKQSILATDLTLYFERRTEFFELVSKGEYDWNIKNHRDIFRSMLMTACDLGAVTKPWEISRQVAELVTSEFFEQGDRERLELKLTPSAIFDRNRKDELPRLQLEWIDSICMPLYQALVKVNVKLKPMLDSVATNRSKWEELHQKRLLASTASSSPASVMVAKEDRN
Chain of PDE1A (P54750 whole entry): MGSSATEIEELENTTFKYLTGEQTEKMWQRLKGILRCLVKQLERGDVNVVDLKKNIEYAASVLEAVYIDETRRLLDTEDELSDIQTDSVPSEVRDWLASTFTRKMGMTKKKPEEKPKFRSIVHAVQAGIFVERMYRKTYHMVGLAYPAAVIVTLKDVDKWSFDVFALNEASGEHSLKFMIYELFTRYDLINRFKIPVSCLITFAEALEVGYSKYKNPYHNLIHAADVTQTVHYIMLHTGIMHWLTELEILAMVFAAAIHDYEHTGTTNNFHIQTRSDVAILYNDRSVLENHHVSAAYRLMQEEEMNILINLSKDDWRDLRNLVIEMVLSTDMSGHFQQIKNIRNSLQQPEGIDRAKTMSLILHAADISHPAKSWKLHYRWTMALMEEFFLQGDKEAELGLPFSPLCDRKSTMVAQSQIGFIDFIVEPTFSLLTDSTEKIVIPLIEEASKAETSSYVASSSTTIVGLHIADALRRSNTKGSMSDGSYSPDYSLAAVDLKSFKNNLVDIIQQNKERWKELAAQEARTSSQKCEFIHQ
Chain of PDE2A (O00408 whole entry): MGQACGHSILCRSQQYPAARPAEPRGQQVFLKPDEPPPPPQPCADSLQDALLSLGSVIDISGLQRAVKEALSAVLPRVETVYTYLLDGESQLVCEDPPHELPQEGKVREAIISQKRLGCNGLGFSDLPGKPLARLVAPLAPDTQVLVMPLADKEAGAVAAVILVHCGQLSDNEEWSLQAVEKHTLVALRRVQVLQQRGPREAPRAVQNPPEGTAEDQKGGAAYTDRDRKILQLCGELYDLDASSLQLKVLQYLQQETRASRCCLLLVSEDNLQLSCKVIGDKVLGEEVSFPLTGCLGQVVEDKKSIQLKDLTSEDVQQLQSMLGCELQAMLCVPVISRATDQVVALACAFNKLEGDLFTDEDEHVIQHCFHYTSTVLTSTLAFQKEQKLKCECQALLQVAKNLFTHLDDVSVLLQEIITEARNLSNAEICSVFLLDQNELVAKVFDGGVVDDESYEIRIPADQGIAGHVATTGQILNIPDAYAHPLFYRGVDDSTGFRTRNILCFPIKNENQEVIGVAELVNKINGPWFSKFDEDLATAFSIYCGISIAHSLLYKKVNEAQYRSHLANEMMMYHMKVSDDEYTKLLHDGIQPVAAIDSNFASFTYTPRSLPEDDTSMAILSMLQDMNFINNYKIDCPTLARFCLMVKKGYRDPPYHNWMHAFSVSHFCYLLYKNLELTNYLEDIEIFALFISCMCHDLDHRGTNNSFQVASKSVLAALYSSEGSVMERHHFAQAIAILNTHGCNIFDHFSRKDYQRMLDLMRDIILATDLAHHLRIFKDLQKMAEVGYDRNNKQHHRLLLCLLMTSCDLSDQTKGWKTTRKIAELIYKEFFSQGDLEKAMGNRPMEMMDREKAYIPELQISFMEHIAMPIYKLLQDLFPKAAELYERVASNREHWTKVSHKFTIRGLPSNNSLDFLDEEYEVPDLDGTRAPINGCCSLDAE
Chain of PDE10A (Q9Y233 718-1035 limits assumed): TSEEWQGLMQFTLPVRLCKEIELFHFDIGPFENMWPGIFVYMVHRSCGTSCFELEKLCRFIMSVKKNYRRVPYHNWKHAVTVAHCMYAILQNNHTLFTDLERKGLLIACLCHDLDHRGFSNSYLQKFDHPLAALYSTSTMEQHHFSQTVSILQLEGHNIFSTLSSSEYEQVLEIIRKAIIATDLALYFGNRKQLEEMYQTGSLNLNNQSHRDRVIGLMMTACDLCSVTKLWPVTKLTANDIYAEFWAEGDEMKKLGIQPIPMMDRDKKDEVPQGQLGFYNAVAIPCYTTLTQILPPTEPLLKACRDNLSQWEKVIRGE
Chain of PDE3A (Q14432 whole entry): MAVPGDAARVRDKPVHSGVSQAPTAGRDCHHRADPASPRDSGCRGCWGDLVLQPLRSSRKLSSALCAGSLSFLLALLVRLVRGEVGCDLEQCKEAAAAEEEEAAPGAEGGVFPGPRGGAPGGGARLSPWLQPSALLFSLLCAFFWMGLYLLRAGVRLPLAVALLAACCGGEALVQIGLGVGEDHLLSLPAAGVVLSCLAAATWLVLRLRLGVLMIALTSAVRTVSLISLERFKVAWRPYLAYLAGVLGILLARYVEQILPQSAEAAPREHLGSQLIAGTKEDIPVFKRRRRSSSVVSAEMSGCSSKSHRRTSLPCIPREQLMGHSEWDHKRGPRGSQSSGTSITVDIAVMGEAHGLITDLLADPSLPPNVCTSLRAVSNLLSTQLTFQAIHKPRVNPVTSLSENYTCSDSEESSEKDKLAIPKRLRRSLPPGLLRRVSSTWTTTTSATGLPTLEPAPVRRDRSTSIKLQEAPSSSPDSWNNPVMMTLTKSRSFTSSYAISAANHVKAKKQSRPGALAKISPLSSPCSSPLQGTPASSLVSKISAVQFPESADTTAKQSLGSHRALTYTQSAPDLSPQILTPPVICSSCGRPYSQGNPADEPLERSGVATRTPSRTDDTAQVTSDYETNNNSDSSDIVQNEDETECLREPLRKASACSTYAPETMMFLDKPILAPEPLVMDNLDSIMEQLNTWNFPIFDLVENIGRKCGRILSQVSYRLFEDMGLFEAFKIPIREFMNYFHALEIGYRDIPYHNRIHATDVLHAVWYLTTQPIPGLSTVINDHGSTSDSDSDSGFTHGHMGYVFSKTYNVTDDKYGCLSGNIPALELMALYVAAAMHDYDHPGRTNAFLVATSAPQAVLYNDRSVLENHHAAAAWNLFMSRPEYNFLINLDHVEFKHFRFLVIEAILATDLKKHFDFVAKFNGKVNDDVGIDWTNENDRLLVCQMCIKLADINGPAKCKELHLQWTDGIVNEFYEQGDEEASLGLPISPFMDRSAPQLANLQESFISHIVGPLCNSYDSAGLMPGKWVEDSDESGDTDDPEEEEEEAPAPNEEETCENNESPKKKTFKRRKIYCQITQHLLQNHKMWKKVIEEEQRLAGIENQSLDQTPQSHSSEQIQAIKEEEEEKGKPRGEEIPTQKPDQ
Chain of PDE4B (Q07343 whole entry): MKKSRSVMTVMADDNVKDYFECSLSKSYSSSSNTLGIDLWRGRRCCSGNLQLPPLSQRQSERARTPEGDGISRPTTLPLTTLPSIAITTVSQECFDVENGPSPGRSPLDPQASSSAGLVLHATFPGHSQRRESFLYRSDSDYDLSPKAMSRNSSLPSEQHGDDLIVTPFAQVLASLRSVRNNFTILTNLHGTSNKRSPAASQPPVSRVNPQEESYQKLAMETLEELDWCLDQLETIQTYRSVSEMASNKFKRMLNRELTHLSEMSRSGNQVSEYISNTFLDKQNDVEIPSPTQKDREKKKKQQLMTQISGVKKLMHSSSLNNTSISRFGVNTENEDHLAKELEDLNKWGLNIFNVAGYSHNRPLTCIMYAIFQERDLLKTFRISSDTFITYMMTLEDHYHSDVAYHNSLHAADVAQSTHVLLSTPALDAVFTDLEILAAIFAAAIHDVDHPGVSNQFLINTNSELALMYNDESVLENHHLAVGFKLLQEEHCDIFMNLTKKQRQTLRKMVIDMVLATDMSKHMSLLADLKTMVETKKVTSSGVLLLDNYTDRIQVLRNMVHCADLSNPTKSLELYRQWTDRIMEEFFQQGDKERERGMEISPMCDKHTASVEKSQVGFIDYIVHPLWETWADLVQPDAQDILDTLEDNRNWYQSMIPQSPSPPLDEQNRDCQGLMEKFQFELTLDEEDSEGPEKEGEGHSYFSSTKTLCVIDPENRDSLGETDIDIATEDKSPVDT

SMILES: COc1cc2ncnc(N3CC[C@@H](Oc4cnc5ccccc5n4)C3)c2cc1OC [PQ10]
- IC50 [1, 18]: 13 nM
- IC50 [1, 19]: 5 nM
- IC50 [2, 18]: 30100 nM
- IC50 [2, 19]: 13200 nM
- IC50 [3, 18]: 29200 nM
- IC50 [3, 19]: 8800 nM
- IC50 [4, 18]: 7000 nM
- IC50 [4, 19]: 3700 nM
- IC50 [5, 18]: 470 nM
- IC50 [5, 19]: 320 nM
- IC50 [6]: 17800 nM
- IC50 [7]: 1800 nM
- IC50 [8]: 1690 nM
- IC50 ([9]; Homo sapiens, HOP-62, HOP62, 72 hours, 5% serum, read-out: Growth inhibition IC50): 1010 nM
- growth of vector control HOP62 cells ([9]; shCTL, PQ10 2 µmol/L): effectively inhibited
- maximum reduction of viable cell number ([10]; 3 days of treatment): greater than 75%
- IC50 ([10]; Homo sapiens, 72 h, read-out: Growth inhibition IC50 values, range over human lung tumor cells): 320 to 1690 nM
- reduction of colony formation ([11]; 0.1 µmol/L, PDE10 knockdown HOP62 cells): 12.3%
- IC50 ([11]; Homo sapiens, HOP-62, 336 h, HOP62 shPDE10, 14 days of treatment): 172 nM
- reduction of colony formation ([12]; 0.1 µmol/L, HOP62 vector control cells): 54.4%
- IC50 ([12]; Homo sapiens, HOP-62, 336 h, HOP62 shCTL, 14 days of treatment): 98 nM
- time to increase in cGMP levels ([13]; H1299 biosensor cells, sustained to 2 hours): ≤ 1 h
- EC50 ([13]; CNP (100 nmol/L) stimulation): 1310 nM
- EC50 ([13]; SNP (100 µmol/L) stimulation): 1720 nM
- EC50 ([14]; Homo sapiens, HEK293 biosensor cells, SNP (100 µmol/L) stimulation, read-out: EC50 to induce cGMP elevation): 5670 nM
- EC50 fold higher in HEK293 than in H1299 biosensor cells ([14]; SNP (100 µmol/L)): about 3.3 fold
- time to increase in pSer239-VASP levels [15]: ≤ 30 minutes
- lowest concentration increasing cleaved PARP and caspase 3 ([16]; 24 hours of treatment): 0.1 µmol/L
- concentration of maximum effect on cleaved PARP and caspase 3 ([16]; 48 hours of treatment): 5 µmol/L
- MAPK signaling, ERK1/2 (p42/44) phosphorylation at T202/Y204 [17]: concentration- and time-dependent inhibition
- phosphorylation of c-RAF at serine 338 and serine 259 [17]: did not affect
